In one assay the target is TGFβRI kinase ALK5 (Homo sapiens (Human), UniProt P36897). Briefly: Inhibition of TGFβRI kinase ALK5 activity (TGFβRI kinase assay kit, ADP-Glo). The assay is classed as biochemical. Particulars: ATP 50 μM; read-out: IC50 of inhibition effect on TGFβRI kinase ALK5 activity. On the procedure:
The inhibition effect of TGFβRI kinase activity in vitro was determined by the following method.
The inhibition effect of the compounds of the present invention on TGFβRI kinase ALK5 activity was determined by the following experimental method:
TGFβRI kinase assay kit (V4093, Promega) was used to assay enzyme activity. 2 μl of enzyme solution (the final concentration of enzyme in the reaction system was 2 ng/μL) formulated with reaction buffer (40 mM Tris pH 7.5, 20 mM MgCl2, 0.1 mg/ml BSA), 1 μl of a 3-fold gradient dilution of the compounds dissolved in 5% DMSO, and 2 μl of a mixed solution of ATP and TGFβRI substrate peptide (the final concentration of ATP was 50 μM, and the final concentration of substrate was 0.2 μg/μL) were added successively to a 384-well plate (4514, Corning). After reaction at 27° C. for 2.5 hours, 5 μl of ADP-Glo solution in the kit was added to each well, then the plate was placed at 27° C. for 40 minutes. 10 μl of kinase assay reagent was then added to each well, then the plate was placed at 27° C. for 30 minutes. The chemiluminescence signal values were measured with a Victor 3 (PerkinElmer) multi-function microplate reader. The IC50 values of the compounds for enzyme inhibition were calculated using Graphpad prism software based on each concentration of the compound and the corresponding signal value thereof.

Assay [1] concerns Smad signaling pathway of TGFβRI. Briefly: Inhibition of Smad signaling pathway of TGFβRI (3TP-lux luciferase reporter in HepG2 cell). Type of assay: cell-based. Particulars: Homo sapiens, read-out: IC50 on the inhibition of Smad signaling pathway of TGFβRI. On the procedure:
The inhibition effect of the compounds of the present invention on Smad signaling pathway of TGFβRI was determined by the following in vitro test.
The inhibition effect of the compounds of the present invention on Smad signaling pathway of TGFβRI was determined by the following experimental method:
The seeding density is 2.5×10^4 cells/well. The cells were incubated overnight at 37° C., 5% CO2. Each well was replaced with fresh EMEM medium containing 10% FBS. […] The cells were further incubated for 24 hours at 37° C., 5% CO2. Each well was replaced with 90 μL of EMEM medium containing 0.5% FBS, then the cells were starved for 6 hours. The compounds were formulated as a 20 mM stock solution, which was diluted in gradient to a 400× concentration with 100% DMSO, and further 40-fold diluted with EMEM containing 0.5% FBS. The cell culture plate was taken out, then 10 μl of diluted compound or control (0.25% DMSO) was added to each well respectively. The plate was shaken gently, then incubated for 18 hours in an incubator at 37° C., 5% CO2. Finally, 100 μl of detection reagent ONE-Glo™ Luciferase Assay (E6110, Promega) was added to each well, and the plate was placed in dark at room temperature for 10 minutes. The chemiluminescence signal values were measured with a Victor 3.0 (PerkinElmer). The IC50 values of the compounds were calculated using Graphpad Prism software based on each concentration of the compound and the corresponding signal value thereof.

Where [2] appears, read: HepG2 cell, 3TP-lux plasmid, 18 hours.

Like-named read-outs stand apart in the source and are kept apart here.

Sequence of TGFβRI kinase ALK5 (P36897 34-503): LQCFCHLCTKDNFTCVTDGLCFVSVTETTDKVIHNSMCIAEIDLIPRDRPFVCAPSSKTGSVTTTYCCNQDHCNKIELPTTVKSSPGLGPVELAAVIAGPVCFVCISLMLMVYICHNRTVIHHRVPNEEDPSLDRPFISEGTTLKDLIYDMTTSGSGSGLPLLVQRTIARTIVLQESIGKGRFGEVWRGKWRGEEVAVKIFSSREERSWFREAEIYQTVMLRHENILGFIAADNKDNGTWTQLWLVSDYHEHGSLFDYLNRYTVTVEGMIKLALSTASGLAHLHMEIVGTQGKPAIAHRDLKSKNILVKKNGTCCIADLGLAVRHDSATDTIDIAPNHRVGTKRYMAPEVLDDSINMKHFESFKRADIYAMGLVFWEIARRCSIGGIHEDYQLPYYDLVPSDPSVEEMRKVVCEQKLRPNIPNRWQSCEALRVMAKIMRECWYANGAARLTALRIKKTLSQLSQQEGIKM

In the case of `Cc1cccc(-c2nc3n(c2-c2ccc4nnc(C(N)=O)n4c2)[C@@H]2CC[C@H]3C2)n1` [Example 2-2, 6-((5R,8S)-2-(6-Methylpyridin-2-yl)-5,6,7,8-tetrahydro-5,8-methanoimidazo[1,2-a]pyridin-3-yl)[1,2,4]triazolo[4,3-a]pyridine-3-carboxamide], the concentration for half-maximal inhibition (IC50) on TGFβRI kinase ALK5 was determined as 0.003 µM; in assay [1] (setting [2]), 0.036 µM.
In the same order, the values of `CS(=O)(=O)c1ccc(-c2cc(-c3c(-c4ccccn4)nc4n3[C@H]3CC[C@@H]4C3)ccn2)cc1` [Example 46-1, (5S,8R)-3-(2-(4-(Methylsulfonyl)phenyl)pyridin-4-yl)-2-(pyridin-2-yl)-5,6,7,8-tetrahydro-5,8-methanoimidazo[1,2-a]pyridine] are 0.034 µM and 0.079 µM.
Regarding `Cc1cccc(-c2nc3n(c2-c2ccnc4ccc(C(N)=O)cc24)C2CCC3C2)n1` (centres unmarked) [Example 29, 4-(2-(6-Methylpyridin-2-yl)-5,6,7,8-tetrahydro-5,8-methanoimidazo[1,2-a]pyridin-3-yl) quinoline-6-carboxamide], on TGFβRI kinase ALK5, the concentration for half-maximal inhibition (IC50) was 0.085 µM.
On the same count and under the same terms, the result for `NC(=O)c1ccc(-c2cc(-c3c(-c4ccc(F)cn4)nc4n3[C@H]3CC[C@@H]4C3)ccn2)cc1` [Example 41-1, 4-(4-((5S,8R)-2-(5-Fluoropyridin-2-yl)-5,6,7,8-tetrahydro-5,8-methanoimidazo[1,2-a]pyridin-3-yl)pyridin-2-yl)benzamide] reads 0.028 µM.
On to `Cc1cccc(-c2nc3n(c2-c2ccnc(NCCO)c2)[C@H]2CC[C@@H]3C2)n1` [Example 5-1, 2-((4-((5S,8R)-2-(6-Methylpyridin-2-yl)-5,6,7,8-tetrahydro-5,8-methanoimidazo[1,2-a]pyridin-3-yl)pyridin-2-yl)amino)ethanol], for which the IC50 at TGFβRI kinase ALK5 is 0.046 µM; in assay [1] (HepG2, 18 h), 0.075 µM.
With `Cc1cccc(-c2nc3n(c2-c2ccnc(NC(=O)OC(C)(C)C)c2)C2CCC3C2)n1` (centres unmarked) [Example 31, Tert-butyl (4-(2-(6-methylpyridin-2-yl)-5,6,7,8-tetrahydro-5,8-methanoimidazo[1,2-a]pyridin-3-yl)pyridin-2-yl)carbamate], the IC50 at TGFβRI kinase ALK5 stood at 0.055 µM.
Still for that read-out and setting: the result for `Cc1cccc(-c2nn3c(c2-c2ccnc4ccc(C(N)=O)cc24)C2CCC3C2)n1` (centres unmarked) [Example 35, 4-(2-(6-Methylpyridin-2-yl)-4,5,6,7-tetrahydro-4,7-methanopyrazolo[1,5-a]pyridin-3-yl)quinoline-6-carboxamide] reads 0.012 µM.
`Cc1cccc(-c2nc3n(c2-c2ccnc(-c4ccc(S(N)(=O)=O)cc4)c2)[C@H]2CC[C@@H]3C2)n1` [Example 13-1, 4-(4-((5S,8R)-2-(6-Methylpyridin-2-yl)-5,6,7,8-tetrahydro-5,8-methanoimidazo[1,2-a]pyridin-3-yl)pyridin-2-yl)benzenesulfonamide]: the concentration for half-maximal inhibition (IC50) on TGFβRI kinase ALK5 worked out at 0.011 µM; in assay [1] (setting [2]) it was 0.037 µM.
For the compound `Cc1cccc(-c2nc3n(c2-c2ccnc(N)c2)C2CCC3C2)n1` (centres unmarked) [Example 32, 4-(2-(6-Methylpyridin-2-yl)-5,6,7,8-tetrahydro-5,8-methanoimidazo[1,2-a]pyridin-3-yl)pyridin-2-amine], the IC50 stood at 0.009 µM at TGFβRI kinase ALK5 and 0.008 µM in assay [1] (HepG2, 18 h).
`Cc1cccc(-c2nc3n(c2-c2ccnc(-c4ccc(S(C)(=O)=O)cc4)c2)C2CCC3C2)n1` (centres unmarked) [Example 3, 2-(6-Methylpyridin-2-yl)-3-(2-(4-(methylsulfonyl)phenyl)pyridin-4-yl)-5,6,7,8-tetrahydro-5,8-methanoimidazo[1,2-a]pyridine]: the concentration for half-maximal inhibition (IC50) in assay [1] (setting [2]) came out at 0.058 µM.
For `Cc1cccc(-c2nc3n(c2-c2ccnc(NC[C@H](C)O)c2)[C@H]2CC[C@@H]3C2)n1` [Example 18-1, (S)-1-((4-((5S,8R)-2-(6-Methylpyridin-2-yl)-5,6,7,8-tetrahydro-5,8-methanoimidazo[1,2-a]pyridin-3-yl)pyridin-2-yl)amino)propan-2-ol], the IC50 at TGFβRI kinase ALK5 turned out to be 0.08 µM; in assay [1] (setting [2]), 0.088 µM.
Take `Cc1cccc(-c2nc3n(c2-c2ccnc(-c4ccc(C(=O)NC5CCOCC5)cc4)c2)C2CCC3C2)n1` (centres unmarked) [Example 17, 4-(4-(2-(6-Methylpyridin-2-yl)-5,6,7,8-tetrahydro-5,8-methanoimidazo[1,2-a]pyridin-3-yl)pyridin-2-yl)-N-(tetrahydro-2H-pyran-4-yl)benzamide]: on TGFβRI kinase ALK5, the IC50 worked out at 0.038 µM.
The same measure, in the same setting: the result for `Cc1cccc(-c2nc3n(c2-c2ccnc(-c4ccc(C(=O)O)cc4)c2)C2CCC3C2)n1` (centres unmarked) [Example 19, 4-(4-(2-(6-Methylpyridin-2-yl)-5,6,7,8-tetrahydro-5,8-methanoimidazo[1,2-a]pyridin-3-yl)pyridin-2-yl)benzoic acid] reads 0.087 µM.
With `Cc1cccc(-c2nc3n(c2-c2ccnc(-c4cnn(S(C)(=O)=O)c4)c2)C2CCC3C2)n1` (centres unmarked) [Example 43, 2-(6-Methylpyridin-2-yl)-3-(2-(1-(methylsulfonyl)-1H-pyrazol-4-yl)pyridin-4-yl)-5,6,7,8-tetrahydro-5,8-methanoimidazo[1,2-a]pyridine], the concentration for half-maximal inhibition (IC50) came out at 0.021 µM on TGFβRI kinase ALK5 and 0.011 µM in assay [1] (HepG2, 18 h).
Turning to `Cc1cccc(-c2nn3c(c2-c2ccnc(NCCO)c2)C2CCC3CC2)n1` [Example 37, 2-((4-(2-(6-Methylpyridin-2-yl)-4,5,6,7-tetrahydro-4,7-ethanopyrazolo[1,5-a]pyridin-3-yl)pyridin-2-yl)amino)ethanol], in assay [1] (setting [2]), the half-maximal inhibitory concentration (IC50) turned out to be 0.061 µM.
As to `Cc1cccc(-c2nn3c(c2-c2ccnc4ccc(C(N)=O)cc24)C2CCC3CC2)n1` [Example 34, 4-(2-(6-Methylpyridin-2-yl)-4,5,6,7-tetrahydro-4,7-ethanopyrazolo[1,5-a]pyridin-3-yl)quinoline-6-carboxamide], the IC50 at TGFβRI kinase ALK5 stood at 0.012 µM.
Regarding `Cc1cccc(-c2nc3n(c2-c2ccc4nccc(OC5CCNCC5)c4c2)C2CCC3C2)n1` (centres unmarked) [Example 15, 2-(6-Methylpyridin-2-yl)-3-(4-(piperidin-4-yloxy)quinolin-6-yl)-5,6,7,8-tetrahydro-5,8-methanoimidazo[1,2-a]pyridine], the concentration for half-maximal inhibition (IC50) at TGFβRI kinase ALK5 was 0.06 µM.
With `NC(=O)c1nnc2cc(-c3c(-c4ccccn4)nc4n3[C@H]3CC[C@@H]4C3)ccn12` [Example 47-1, 7-((5S,8R)-2-(Pyridin-2-yl)-5,6,7,8-tetrahydro-5,8-methanoimidazo[1,2-a]pyridin-3-yl)-[1,2,4]triazolo[4,3-a]pyridine-3-carboxamide], the IC50 at TGFβRI kinase ALK5 was 0.039 µM; in assay [1] (setting [2]), 0.053 µM.
Regarding `Cc1cccc(-c2nc3n(c2-c2ccc(=O)n(C)c2)C2CCC3C2)n1` (centres unmarked) [Example 20, 1-Methyl-5-(2-(6-methylpyridin-2-yl)-5,6,7,8-tetrahydro-5,8-methanoimidazo[1,2-a]pyridin-3-yl)pyridin-2(1H)-one], the IC50 in assay [1] (setting [2]) amounted to 0.053 µM.
As for `Cc1cccc(-c2nc3n(c2-c2ccnc(NCCO)c2)C2CCC3C2)n1` (centres unmarked) [Example 5, 2-((4-(2-(6-Methylpyridin-2-yl)-5,6,7,8-tetrahydro-5,8-methanoimidazo[1,2-a]pyridin-3-yl)pyridin-2-yl)amino)ethanol], the IC50 at TGFβRI kinase ALK5 amounted to 0.059 µM; in assay [1] (setting [2]), 0.039 µM.
Take `Cc1cccc(-c2nc3n(c2-c2ccnc(OCCO)c2)C2CCC3C2)n1` (centres unmarked) [Example 26, 2-((4-(2-(6-Methylpyridin-2-yl)-5,6,7,8-tetrahydro-5,8-methanoimidazo[1,2-a]pyridin-3-yl)pyridin-2-yl)oxy)ethanol]: the IC50 in assay [1] (setting [2]) was 0.086 µM.
For `Cc1cccc(-c2nc3n(c2-c2ccnc(Nc4ccc(S(N)(=O)=O)cc4)c2)C2CCC3C2)n1` (centres unmarked) [Example 14, 4-((4-(2-(6-Methylpyridin-2-yl)-5,6,7,8-tetrahydro-5,8-methanoimidazo[1,2-a]pyridin-3-yl)pyridin-2-yl)amino)benzenesulfonamide], the IC50 at TGFβRI kinase ALK5 is 0.031 µM; in assay [1] (HepG2, 18 h) it was 0.081 µM.

The IC50 is the concentration that gives 50% inhibition.

For the origin of these results see patent publication US10906905B2, “Five-membered heteroaryl ring bridged ring derivative, preparation method therefor and medical use thereof” (Jiangsu Hengrui Medicine Co., Ltd., priority 2016, dated 2021).
